In PubChem BioAssay AID651630 (Sanford-Burnham Center for Chemical Genomics, 2012):
Active and inactive are the calls of the source.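 How the source made its calls: active means lipid-stain IC50 at or below a set limit, with nuclear-stain toxicity IC50 at least five times higher; inactive means the rest.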

Key:
DAPI = assay: triacylglycerol accumulation inhibitor potency, dose response, cell-based, panel, Nile Red and DAPI fluorescence, H9c2 (AID 651630); conditions: H9c2 cells, DAPI nuclear fluorescence (cytotoxicity counter-readout), oleic acid;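 further: cells exposed to compound overnight before fixation and staining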
TAG = assay: as above; conditions: H9c2 cells, Nile Red TAG fluorescence, oleic acid

| SMILES | IC50 cytotoxicity (DAPI nuclear signal decrease) (DAPI; mean of runs) | IC50 cytotoxicity (DAPI nuclear signal decrease) (DAPI; run 1) | IC50 cytotoxicity (DAPI nuclear signal decrease) (DAPI; run 2) | IC50 (TAG; mean of runs) | IC50 (TAG; run 1) | IC50 (TAG; run 2) |
| --- | --- | --- | --- | --- | --- | --- |
| COc1cc2c(c(OC)c1OC)-c1ccc(O)cc1C(NC(C)=O)CC2 (configuration not stated) | > 25 µM (inactive) | > 25 µM | > 25 µM | > 25 µM (inactive) | > 25 µM | > 25 µM |
| Cc1ccc(Cn2cc(/C=N/NC(=O)Cc3nnc(NC(=O)c4ccc(C)cc4)s3)c3ccccc32)cc1 | 16 µM (inactive) | 13.1 µM | 19 µM | > 25 µM (inactive) | > 25 µM | > 25 µM |
| O=C(Nc1nc(-c2ccccc2)cs1)C1CCCN(S(=O)(=O)c2cccc([N+](=O)[O-])c2)C1 (configuration not stated) | > 25 µM (inactive) | > 25 µM | > 25 µM |  | 22.1 µM | > 25 µM |
| CCCCC(=NCCc1c(C)[nH]c2ccc(OC)cc12)C1=C(O)CC(c2ccccc2)CC1=O (configuration not stated) | > 25 µM (inactive) | > 25 µM | > 25 µM |  | 16.1 µM | > 25 µM |
| CC1(C)Cc2nc3sc4c(SCC(=O)NCc5ccco5)ncnc4c3cc2CO1 | > 25 µM (inactive) | > 25 µM | > 25 µM | > 25 µM (inactive) | > 25 µM | > 25 µM |
| Cc1cc(NC(=O)c2ccccc2F)n(-c2nc3ccccc3[nH]2)n1 | > 25 µM (inactive) | > 25 µM | > 25 µM | 16.8 µM (inactive) | 16.8 µM | 16.9 µM |
| c1ccc(-c2csc(NNC3=NCCCCC3)n2)cc1 |  | > 25 µM | > 25 µM | 3.65 µM | 3.15 µM | 4.14 µM |
| Clc1ccc(-c2csc(NNC3=NCCCCC3)n2)cc1 |  | 23.9 µM | > 25 µM |  | < 0.78 µM | 0.875 µM |
| COC(=O)c1cc(C(=O)N2CCN(c3ccccc3OC)CC2)cc([N+](=O)[O-])c1 | > 25 µM (inactive) | > 25 µM | > 25 µM | 13.2 µM | 11.8 µM | 14.5 µM |
| CN(C)CCCn1c(=O)n(CCc2ccccc2)c(=O)c2c3c(sc21)CCCCC3 |  | > 25 µM | 16.2 µM | > 25 µM (inactive) | > 25 µM | > 25 µM |
| Cc1ccc(Cl)cc1NC(=S)N/N=C/c1cccc2ccccc12 | > 25 µM (inactive) | > 25 µM | > 25 µM |  | 19.9 µM | > 25 µM |
| Cc1c(C(=O)OCC(C)C)[nH]c2c1C(=O)CC(c1cccs1)C2 (configuration not stated) | > 25 µM (inactive) | > 25 µM | > 25 µM | > 25 µM (inactive) | > 25 µM | > 25 µM |
| COc1ccc(CNC(=O)Nc2nc(C(N)Cc3ccc(Cl)cc3)cs2)cc1 (configuration not stated) | 21.7 µM (inactive) | 19.5 µM | 23.9 µM | > 25 µM (inactive) | > 25 µM | > 25 µM |
| CCOC(=O)[C@H]1[C@H]2COc3ccc(Br)cc3[C@@H]2N2C(=O)c3cc(Br)ccc3NC(=O)[C@@]12C | > 25 µM (inactive) | > 25 µM | > 25 µM | > 25 µM (inactive) | > 25 µM | > 25 µM |
| O=C(Nc1sc2c(c1-c1nc3ccccc3[nH]1)CCCC2)C1CCCC1 | > 25 µM (inactive) | > 25 µM | > 25 µM | 7.22 µM | 4.9 µM | 9.54 µM |
| CCOc1ccc2nc(NC(=O)C3CCCN(S(=O)(=O)c4c(C)noc4C)C3)sc2c1 (configuration not stated) | > 25 µM (inactive) | > 25 µM | > 25 µM | 5 µM | 4.04 µM | 5.97 µM |
| Cc1cc(NC(=O)c2cc(-c3ccncc3)nc3c(C)cccc23)no1 | > 25 µM (inactive) | > 25 µM | > 25 µM | 11.5 µM | 10.5 µM | 12.5 µM |

| SMILES | IC50 cytotoxicity (DAPI nuclear signal decrease) (DAPI; mean of runs) | IC50 cytotoxicity (DAPI nuclear signal decrease) (DAPI; run 1) | IC50 cytotoxicity (DAPI nuclear signal decrease) (DAPI; run 2) | IC50 (TAG; mean of runs) | IC50 (TAG; run 1) | IC50 (TAG; run 2) |
| --- | --- | --- | --- | --- | --- | --- |
| COc1cc(Cn2c(-c3nonc3N)nc3ccccc32)ccc1C | > 25 µM (inactive) | > 25 µM | > 25 µM |  | 24.4 µM | > 25 µM |
| Cc1cccc(C(=O)N[C@H](C(=O)Nc2ncc(C)s2)C(C)C)c1 |  | 22.9 µM | > 25 µM | 9.36 µM | 9.74 µM | 8.97 µM |
| CCN(CC)CCn1c(SCC(=O)Nc2cccc(OC)c2)nc2c(sc3ccccc32)c1=O | > 25 µM (inactive) | > 25 µM | > 25 µM | 13.7 µM | 16.7 µM | 10.6 µM |
| CCC(=O)Nc1nonc1-c1nc2ccccc2n1Cc1cccc2ccccc12 | > 25 µM (inactive) | > 25 µM | > 25 µM | > 25 µM (inactive) | > 25 µM | > 25 µM |
| Cc1ccc(NC(=S)N(CCCN2CCCC2)Cc2cccn2Cc2ccc(Cl)cc2)cc1Cl |  | > 25 µM | 23.1 µM | > 25 µM (inactive) | > 25 µM | > 25 µM |
| Cc1ccc(-n2cc(CNCCCn3cccn3)c(-c3cccc(C)c3)n2)cc1 | > 25 µM (inactive) | > 25 µM | > 25 µM | > 25 µM (inactive) | > 25 µM | > 25 µM |
| C=CCN1C(=O)/C(=C2\SC(N3CCOCC3)=NC2=O)c2cc(Br)ccc21 | > 25 µM (inactive) | > 25 µM | > 25 µM | 22.4 µM (inactive) | 22.5 µM | 22.4 µM |
| COc1ccc(C(=O)Nc2sc3c(c2C(=O)NCc2ccco2)CCCC3)cc1OC | > 25 µM (inactive) | > 25 µM | > 25 µM | > 25 µM (inactive) | > 25 µM | > 25 µM |
| CC(C)C[C@@H](CNC(=O)OC(C)(C)C)NC(=O)c1nc[nH]c1C(=O)N[C@@H](CC(C)C)C(=O)CNC[C@H](CC(C)C)NC(=O)c1nc[nH]c1C(=O)N[C@@H](Cc1c[nH]c2ccccc12)C(=O)OC(C)(C)C | > 25 µM (inactive) | > 25 µM | > 25 µM | 5.5 µM | 4.49 µM | 6.51 µM |
| CC(C)(C)NCCC(O)c1cc(C(F)(F)F)nc2c(C(F)(F)F)cccc12 (configuration not stated) | > 25 µM (inactive) | > 25 µM | > 25 µM | 11.2 µM | 11.5 µM | 11 µM |
| CCOc1ccc(C(=O)NC(=S)Nc2cccc(S(=O)(=O)NC3=NCCC3)c2)cc1 | > 25 µM (inactive) | > 25 µM | > 25 µM | > 25 µM (inactive) | > 25 µM | > 25 µM |
| CCc1cc2c3c(c1)C1(C(=O)N3C(C)(C)C=C2C)C(C#N)=C(N)Oc2[nH]c(=O)[nH]c(=O)c21 (configuration not stated) | > 25 µM (inactive) | > 25 µM | > 25 µM | > 25 µM (inactive) | > 25 µM | > 25 µM |
| O=C(Nc1nc2ccc(C(=O)N3CCCCC3)cc2s1)C1CCCCC1 | > 25 µM (inactive) | > 25 µM | > 25 µM | 15.4 µM (inactive) | 10.6 µM | 20.2 µM |
| O=C(C[C@H]1C[C@H](C(=O)N2CCOCC2)[C@@]2(CCC3CCCC3)c3[nH]c4ccc(Cl)cc4c3CCN2C1=O)NCC12CC3CC(CC(C3)C1)C2 | > 25 µM (inactive) | > 25 µM | > 25 µM | > 25 µM (inactive) | > 25 µM | > 25 µM |
| CCCc1cc(C(=O)N/N=C/c2ccc(CC)s2)c2ccccc2n1 | > 25 µM (inactive) | > 25 µM | > 25 µM | > 25 µM (inactive) | > 25 µM | > 25 µM |
| Cn1cc(/C=N/n2cnc3scc(-c4ccc(Cl)cc4)c3c2=O)c2ccccc21 |  | > 25 µM | > 25 µM |  | 5.8 µM | < 0.78 µM |
| S=C(N/N=C/c1cccs1)NC1CC2CCC1C2 (configuration not stated) | > 25 µM (inactive) | > 25 µM | > 25 µM | 8.53 µM | 4.71 µM | 12.3 µM |
